US7538129B2, “Diazonamide A analog” (Board of Regents, The University of Texas System, priority 2005, dated 2009)

How the values were obtained:
[1] = system: MDA-MB-231; assay: growth inhibition (GI50) of tumor cell lines; assay type: cell-based; details: MDA-MB-231, FIG. 1
Description: A number of tumor cell lines representing breast, lung, colon, ovarian and prostate cancer as well as melanoma were assayed under standard growth conditions in presence of varying amounts of diazonamide A, a hydroxylated form of Compound J, Compound J, paclitaxel and vinblastine. The results are graphed as the concentration that diminishes growth by a factor of two (GI50) in FIG. 1.

[2] = system: HCT116 xenografts; assay: growth inhibition of HCT116 xenografts; assay type: in vivo, mice; details: HCT116 (colon), 0.45 mg/kg, IP
Description: Details of the preparation of murine models containing xenografts of HCT116 cells or PC-3 cells are described in the section following these examples. After the tumors were grown, therapy utilizing Compound J or paclitaxel was initiated. […] In FIG. 4A, the *'s represent control mice, the squares represent 5 mg/kg Compound J; the diamonds represent 20 mg/kg Compound J; and the slanted line represents 20 mg/kg paclitaxel.
The details of the protocol for Examples 19 and 20 are as follows:
• PC3 prostrate tumor cells and HCT116 colon tumor cells (acquired from the tumor repository Division of Cancer Treatment and Diagnosis (DCTD) of the NCI • Complete RPMI Media • RPMI (Cat# 11875-085, Invitrogen) • 10% Heat-inactivated (30′ 56° C.) Fetal Bovine Serum (Cat# 100-106, Gemini Bio-Products • 2 mM L-glutamine (Cat# 25030-081, Invitrogen) • 0.1 mM MEM Non-Essential Amino Acids Solution (Cat#11140-050, Invitrogen) • 10 U/ml Penicillin/10 μg/ml Streptomycin (Cat#15140-122, Invitrogen) • 1 mM Sodium Pyruvate (Cat#l 1360-070) • Trypsin-EDTA (Cat#25300-054, Invitrogen) • Ca^2+/Mg^2+-free Phosphate Buffered Saline, 5% dextrose in water • Cell Culture Dish 150 mm×25 mm (Cat# 430599, Coming, Inc.) • 10 and 25 ml pipets, standard pipet-aid, p200 and p1000 pipette tips and standard pipetmen • Athymic NCr-nu/nu nude mice at 6-12 weeks of age, either sex (Strain code: 01B74, NCI Frederick Animal Production Program—suppliers include Charles River Labs and Taconic Farms). Female mice of approximately 7 weeks of age were utilized for existing experiments. • Standard 1 cc tuberculin syringe, 30G½ and 25G⅝ needles (Becton Dickinson) • Falcon 5 ml tubes (Cat#352054) • 50 and 15 ml disposable plastic conical tubes (Falcon or similar vendor) • Trypan Blue Solution (0.4%) (Cat#T8154, Sigma) • Hausser phase contrast hemacytometer (Cat# 02-671-54, Fisher) • Ice bucket • Balance for weighing mice (accurate to 0.2 g) • Vernier calipers • Vivarium facility free from known pathogens (nude mice should be housed in isolation from conventional mice if possible—separate rooms or micro-isolator cages equipped with individual air flow; all animal housing, bedding, water should be autoclaved prior to use; standard irradiated mouse chow should be used; animals should be changed out of cages within laminar flow hood; investigators handling mice should be suitably garbed—disposable gown, bonnet, booties, gloves, mask) • AB-5 (Compound J) compound • Ethyl alcohol, 200 proof (Aaper, MFD 041205) • Cremaphor (Cat# C5135, Sigma) • Paclitaxel (Cat#ANP0010, Polymed Therapeutics) Procedure: • 1) Rapidly thaw PC3 or HCT116 cells (if necessary) in 37° C. water bath. Transfer contents to 9ml complete RPMI media. Spin 5′ at 1200 rpm (240 Xg). Discard media and resuspend pellet in 8 ml complete RPMI media. Plate in 100 mm×25 mm cell culture dish in 5% CO2, 37° C. humidified incubator. • 2) Allow to grow for 5-10 days, splitting (aspirate media, wash with 3-5 ml PBS, add 1 ml trypsin-EDTA, incubate 3-5′ at 37° C., add media to desired volume and transfer to multiple plates) 1:8 to 1:10 every 3-4 days as necessary to allow cells to enter phase of logarithmic growth. • 3) When cells are growing well, begin to expand to 150 mm×25 mm dishes. We use 20 ml of media in a 150 mm dish and use 2 ml of trypsin for splitting. When nearly confluent, there should be 2×10^7 cells/150 mm dish. • 4) Plan ahead to time arrival of nu/nu mice such that they can acclimate to animal facility for 1 week prior to injection of tumor cells. […] Plan to inject 10 million cells/mouse and allow for loss of cells/volume during injection process. That is, if 30 mice are to be injected, plan to harvest cells sufficient for at least 35 injections—35×10 million cells=3.5×10^8 cells. In the existing HCT116 experiment, 7.5×10^6 cells were injected per mouse. Five mice per group were utilized for AB-5 treatment and four mice per group were utilized for the control and paclitaxel treatments. […]

[3] = system: MDA-MB-435 (breast) xenografts; assay: growth inhibition of MDA-MB-435 xenografts; assay type: in vivo, mice; details: 0.7 mg/kg, IP

SMILES	GI50 (concentration that diminishes growth by a factor of two) [1]	#Tumor Free (day) [2]	% Max T/C [2]	Log10 Tumor Cell Kill [2]	#Tumor Free (day) [3]
CC(C)[C@H](O)C(=O)N[C@H]1Cc2ccc3c(c2)[C@]24C5=C(N=C(O5)[C@H](C(C)C)NC1=O)c1nc(Cl)c(o1)-c1c(Cl)[nH]c5cccc(c15)-c1cccc2c1N[C@@H]4O3 [diazonamide A]	more effective than the remaining drugs	–	–	–	–
CC[C@]1(O)C[C@@H]2CN(CCc3c([nH]c4ccccc34)[C@@](C(=O)OC)(c3cc4c(cc3OC)N(C)[C@H]3[C@@](O)(C(=O)OC)[C@H](OC(C)=O)[C@]5(CC)C=CCN6CC[C@]43[C@@H]65)C2)C1 [vinblastine, reference compound]	more effective than the remaining drugs	0/5	56.0%	0.2	0/6
